Assay results from BindingDB's records for doi:10.1021/jm960794l (Institute of Cancer Research, 1997).

Experiment: Cytotoxicity in T79-A3 (NR-positive) cell lines
Work on NC(=O)c1cc(N2CC2)c([N+](=O)[O-])cc1[N+](=O)[O-] yielded an IC50 of 0.89 µM. With NC(=O)c1cc(N(CCCl)CCCl)c([N+](=O)[O-])cc1[N+](=O)[O-] the IC50 was 15 µM. With NC(=O)c1cc([N+](=O)[O-])cc([N+](=O)[O-])c1N(CCBr)CCBr [2-[Bis-(2-bromo-ethyl)-amino]-3,5-dinitro-benzamide] the IC50 was 0.19 µM. For NC(=O)c1cc([N+](=O)[O-])cc([N+](=O)[O-])c1N(CCCl)CCCl [2-[Bis-(2-chloro-ethyl)-amino]-3,5-dinitro-benzamide], the IC50 was 7.5 µM. Work on O=C(NCC(O)CO)c1cc([N+](=O)[O-])cc([N+](=O)[O-])c1N(CCCl)CCCl (stereo unspecified) [2-[Bis-(2-chloro-ethyl)-amino]-N-(2,3-dihydroxy-propyl)-3,5-dinitro-benzamide] yielded an IC50 of 13 µM. NC(=O)c1cc([N+](=O)[O-])cc([N+](=O)[O-])c1N(CCI)CCI [2-[Bis-(2-iodo-ethyl)-amino]-3,5-dinitro-benzamide] gave an IC50 of 0.1 µM. In the case of O=C(NCC(O)CO)c1cc([N+](=O)[O-])cc([N+](=O)[O-])c1N(CCI)CCI (stereo unspecified) [2-[Bis-(2-iodo-ethyl)-amino]-N-(2,3-dihydroxy-propyl)-3,5-dinitro-benzamide], the IC50 is reported as 4 µM. Molecule NC(=O)c1c([N+](=O)[O-])ccc(N(CCCl)CCCl)c1[N+](=O)[O-] [3-[Bis-(2-chloro-ethyl)-amino]-2,6-dinitro-benzamide] has an IC50 greater than 1000 µM. With CN(C)CCNC(=O)c1c([N+](=O)[O-])ccc(N(CCCl)CCCl)c1[N+](=O)[O-] [3-[Bis-(2-chloro-ethyl)-amino]-N-(2-dimethylamino-ethyl)-2,6-dinitro-benzamide] the IC50 was 895 µM. NC(=O)c1cc(N(CCBr)CCBr)c([N+](=O)[O-])cc1[N+](=O)[O-] [5-(bis(2-bromoethyl)amino)-2,4-dinitrobenzamide] showed an IC50 of 0.25 µM. In the case of NC(=O)c1cc(N(CCI)CCI)c([N+](=O)[O-])cc1[N+](=O)[O-] [5-(bis(2-iodoethyl)amino)-2,4-dinitrobenzamide], the IC50 is reported as 0.23 µM. O=C(NCC(O)CO)c1cc(N(CCI)CCI)c([N+](=O)[O-])cc1[N+](=O)[O-] (stereo unspecified) [5-(bis(2-iodoethyl)amino)-N-(2,3-dihydroxypropyl)-2,4-dinitrobenzamide] gave an IC50 of 1.9 µM. For CS(=O)(=O)CCN(CCCl)c1cc(C(N)=O)c([N+](=O)[O-])cc1[N+](=O)[O-] [5-[(2-Chloro-ethyl)-(2-methanesulfonyl-ethyl)-amino]-2,4-dinitro-benzamide], the IC50 was 3.4 µM. For CS(=O)(=O)c1cc([N+](=O)[O-])c(C(N)=O)cc1N(CCCl)CCCl [5-[Bis-(2-chloro-ethyl)-amino]-4-methanesulfonyl-2-nitro-benzamide], the IC50 was 58 µM. O=C(NCC(O)CO)c1cc(N(CCCl)CCCl)c([N+](=O)[O-])cc1[N+](=O)[O-] (stereo unspecified) [5-[Bis-(2-chloro-ethyl)-amino]-N-(2,3-dihydroxy-propyl)-2,4-dinitro-benzamide] showed an IC50 of 89 µM. For CS(=O)(=O)CCN(CCS(C)(=O)=O)c1cc(C(N)=O)c([N+](=O)[O-])cc1[N+](=O)[O-] [5-[Bis-(2-methanesulfonyl-ethyl)-amino]-2,4-dinitro-benzamide], the IC50 was 9.3 µM.
